Measured values from patent publication US6096909A, “Taxoid anti-tumor agents and pharmaceutical compositions thereof” (The Research Foundation of State University of New York, priority 1997, dated 2000).
Like-named read-outs stand apart in the source and are kept apart here.

Key:
A121 (ovarian carcinoma) = assay: Tumor cell growth inhibition (SRB), 72 h; type: cell-based; conditions: Homo sapiens, read-out: concentration of compound which inhibit 50% (IC50) of the growth of human tumor cell line
HT-29 (colon carcinoma) = assay: Tumor cell growth inhibition (SRB), 72 h; type: cell-based; conditions: Homo sapiens, read-out: concentration of compound which inhibit 50% (IC50) of the growth of human tumor cell line
[1] = system: A549 (non-small cell lung carcinoma); assay: Tumor cell growth inhibition (SRB), 72 h; type: cell-based; conditions: Homo sapiens, read-out: concentration of compound which inhibit 50% (IC50) of the growth of human tumor cell line
MCF7 (mammary carcinoma) = assay: Tumor cell growth inhibition (SRB), 72 h; type: cell-based; conditions: Homo sapiens, read-out: concentration of compound which inhibit 50% (IC50) of the growth of human tumor cell line
[2] = system: human colon carcinoma cells HCT-116; conditions: cited from earlier work
[3] = system: A121 human ovarian, A549 human non-small cell lung, HT-29 human colon and MCF7 human breast cancer cells; assay: Cytotoxicity against human cancer cell panel, stated jointly for the four lines
[4] = system: drug-resistant tumors, e.g., adriamycin-resistant breast cancer; conditions: cited from earlier work
[5] = system: MCF7-R (mammary carcinoma cells 180-fold resistant to adriamycin); assay: Tumor cell growth inhibition (SRB), 72 h; type: cell-based, human; conditions: for IC50: Homo sapiens, MCF7R, read-out: concentration of compound which inhibit 50% (IC50) of the growth of human tumor cell line
[6] = recent report on clinical trials; cited from earlier work
[7] = relative to paclitaxel; cited from earlier work
breast and lung cancers = conditions: United States, Europe, and Japan; cited from earlier work
[8] = relative to paclitaxel; cited from earlier work; remark: listed apart in the source
[9] = A121 (ovarian), 72 h drug exposure, mean of at least three experiments
[10] = HT-29 (colon), 72 h drug exposure, mean of at least three experiments
[11] = A549 (NSCLC), 72 h drug exposure, mean of at least three experiments
[12] = MCF7 (breast), 72 h drug exposure, mean of at least three experiments

| SMILES | IC50 (A121 (ovarian carcinoma); A121, 72 h) [nM] | IC50 (HT-29 (colon carcinoma); HT-29, 72 h) [nM] | IC50 (MCF7 (mammary carcinoma); MCF7, 72 h) [nM] | activity against drug-resistant tumors [4] | side effects in clinical trials [6] | IC50 (A121 (ovarian carcinoma); [9]) [nM] | IC50 (HT-29 (colon carcinoma); [10]) [nM] | IC50 [1, 11] [nM] | IC50 (MCF7 (mammary carcinoma); [12]) [nM] | also measured |
| --- | --- | --- | --- | --- | --- | --- | --- | --- | --- | --- |
| CC(=O)O[C@H]1C(=O)[C@@]2(C)[C@H]([C@H](OC(=O)c3ccccc3)[C@]3(O)C[C@H](OC(=O)[C@H](O)[C@H](C=C(C)C)NC(=O)c4ccccc4)C(C)=C1C3(C)C)[C@]1(OC(C)=O)CO[C@@H]1C[C@@H]2O [RAH-1, 3'-dephenyl-3'-isobutenylpaclitaxel] | 1.4 | 0.96 | 0.54 |  |  |  |  |  |  | IC50 ([1]; A549, 72 h): 0.45 nM; times better activity than docetaxel ([2]; relative to docetaxel): 7 times; times better activity than paclitaxel ([2]; relative to paclitaxel): 4 times |
| CC(=O)O[C@@]12CO[C@@H]1C[C@H](O)[C@@]1(C)C(=O)[C@H](O)C3=C(C)[C@@H](OC(=O)[C@H](O)[C@H](CC(C)(C)C)NC(=O)OC(C)(C)C)C[C@@](O)([C@@H](OC(=O)c4ccccc4)[C@H]21)C3(C)C [3'-dephenyl-3'-neopentyldocetaxel] |  |  |  |  |  |  |  |  |  | cytotoxicity ([3]; in words): virtually not cytotoxic |
| CC(=O)O[C@H]1C(=O)[C@@]2(C)[C@H]([C@H](OC(=O)c3ccccc3)[C@]3(O)C[C@H](OC(=O)[C@H](O)[C@@H](NC(=O)c4ccccc4)c4ccccc4)C(C)=C1C3(C)C)[C@]1(OC(C)=O)CO[C@@H]1C[C@@H]2O [Paclitaxel] | 6.1 | 3.2 | 1.7 | only a weak activity | nerve damage, muscle pain or disturbances in heart rhythm |  |  |  |  | IC50 ([5]; 72 h): 300 nM |
| CC(=O)O[C@@]12CO[C@@H]1C[C@H](O)[C@@]1(C)C(=O)[C@H](O)C3=C(C)[C@@H](OC(=O)[C@H](O)[C@@H](NC(=O)OC(C)(C)C)c4ccccc4)C[C@@](O)([C@@H](OC(=O)c4ccccc4)[C@H]21)C3(C)C [Docetaxel] |  |  |  | only a weak activity | mouth sores and plunge in white blood cells | 1.2 | 1.2 | 1 | 1 | antitumor activity compared with paclitaxel [7]: superior to paclitaxel; activity in phase II and III clinical trials (breast and lung cancers): excellent activities, especially against breast and lung cancers; bioavailability compared with paclitaxel [8]: better bioavailability |
| CC=C[C@H](NC(=O)OC(C)(C)C)[C@@H](O)C(=O)O[C@H]1C[C@@]2(O)[C@@H](OC(=O)c3ccccc3)[C@@H]3[C@]4(OC(C)=O)CO[C@@H]4C[C@H](O)[C@@]3(C)C(=O)[C@H](OC(C)=O)C(=C1C)C2(C)C [Taxoid Ia] |  |  |  |  |  | 0.9 | 0.76 | 0.54 | 0.51 | IC50 ([5]; MCF7-R, 72 h drug exposure, mean of at least three experiments): 14 nM; times better activity than docetaxel ([5]; MCF7-R, relative to docetaxel): 17 times; times better activity than paclitaxel ([5]; MCF7-R, relative to paclitaxel): 21 times; activity spectrum compared with paclitaxel and docetaxel ([3]; relative to paclitaxel and docetaxel): considerably better activity spectrum |
| CC(=O)O[C@@]12CO[C@@H]1C[C@H](O)[C@@]1(C)C(=O)[C@H](O)C3=C(C)[C@@H](OC(=O)[C@H](O)[C@H](C=Cc4ccccc4)NC(=O)OC(C)(C)C)C[C@@](O)([C@@H](OC(=O)c4ccccc4)[C@H]21)C3(C)C [3'-dephenyl-3'-(2-phenylethenyl)docetaxel] |  |  |  |  |  |  |  |  |  | decreased cytotoxicity ([3]; fold decrease): > 20 times |
